The target of one series is T1, AdipoR1 (Homo sapiens, UniProt Q96A54).
T1 construct: expressed in transfected cells; host or cells: Chinese Hamster Ovary cells (ECACC 85050302), transient transfection with Lipofectamine LTX
T1 sequence (Q96A54 1-375): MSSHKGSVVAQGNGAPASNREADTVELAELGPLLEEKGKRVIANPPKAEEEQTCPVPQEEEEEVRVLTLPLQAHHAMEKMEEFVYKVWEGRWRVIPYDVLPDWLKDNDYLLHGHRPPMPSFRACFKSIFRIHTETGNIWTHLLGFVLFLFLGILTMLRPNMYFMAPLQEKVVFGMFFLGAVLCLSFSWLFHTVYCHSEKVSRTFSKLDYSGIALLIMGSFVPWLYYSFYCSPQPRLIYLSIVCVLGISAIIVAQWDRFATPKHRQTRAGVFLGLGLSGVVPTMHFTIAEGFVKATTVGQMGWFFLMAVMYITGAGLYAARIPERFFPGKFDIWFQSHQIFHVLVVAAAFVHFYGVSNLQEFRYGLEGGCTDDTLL
As to the kind of experiment: Radio-ligand saturation binding assay with 125I-ULMA, CHO cells transfected with AdipoR1. As for the experimental part: D. CHO cells transfected with empty vector or AdipoR1 or R2 expression vectors were incubated with various concentrations of ^125I-ULMA for 2 h at 4° C. Following washes, cells were lysed and count per minute was analyzed in a gamma counter. 200 fold molar excess of unlabeled ULMA was used for each concentration of radiolabeled ULMA for determining nonspecific activity. Count per minutes were normalized with total cellular protein content followed by further normalization with non-specific activity and plotted. Data is mean±SEM from three experiments performed in triplicates.
Further validation of AdipoR-ULMA interaction and its quantitation was done using a radio-ligand saturation binding assay using ^125I-ULMA. ULMA was first radiolabeled using chloramines-T method. 10 μl of ^125I (20 MBq; BARC, Mumbai, India) was added to 100 μg GTDF in 5% acetic acid/methanol, then chloramine-T (Sigma, 4 μg in MilliQ H2O) was added, and the mixture was allowed to react at room temperature (24° C.) for 5 min. […] was used for protein estimation using standard Bradford assay and rest of the lysate was used for measuring radioactivity in a gamma-counter (Cole Palmer). The count per minute was normalized with protein concentration and was further normalized with non specific binding, which was determined for every concentration of ^125I-ULMA, using 200 fold molar excess of unlabeled ULMA.

Another series has as its system wistar rats. As to the kind of experiment: Dexamethasone-mediated reduction of food intake in rats. Type of series: in vivo, rat. As for the experimental part:
Six to eight week old wistar rats (n=6 per group) were housed separately and treated as indicated in the example. Daily food intake was measured and plotted. […] Data represents mean+/−SEM.
Blood was collected from cardiac punctures.
Food intake was measured every alternate day by giving measured food to each cage in evening (5.00 PM) and collection of residual food in next morning (9.00 AM) and measuring it. The residual food was subtracted from the food given and plotted.

In another series the test system is PGC-1α. Briefly: PGC-1α acetylation status (immunoprecipitation, anti-acLys western) in C2C12 myotubes. The series is classed as cell-based, mouse. The conditions noted are these: 10 nM, 6 hours. On the procedure:
C. ULMA induces PGC-1α deacetylation. C2C12 myotubes plated in 10 cm dish were treated with vehicle (0.1% vol/vol DMSO) or 10 nM ULMA in DMSO for 6 h. The cell lysates were then incubated with 5 μg anti-PGC-1α antibody (Calbiochem) for 12 h at 4° C. on a rotating wheel set at 10 RPM. 20 μl of protein A and protein G sepharose beads (Sigma; 1:1) was then added to the solution and the incubation was continued for another 2 h. The tubes were then centrifuged (1000 RPM) for 1 min and the supernatant was discarded. The pellets were washed 7 times. The beads were boiled in 50 μl 2× lammeli buffer for 5 min and cooled immediately on ice and following quick spin, the supernatants were resolved by denaturing polyacrylamide gel electrophoresis and western blotted with anti-acetylated lysine (acLys) antibody. Data represent one of three independent experiments displaying identical pattern. […]

Here are results for one molecule from patent US20160193240A1, “Ulmoside-A: Useful For Prevention Or Cure Of Metabolic Diseases” (COUNCIL OF SCIENTIFIC & INDUSTRIAL RESEARCH, priority 2013, published 2016).

Usually Kd stands for the free concentration of one partner at which half of the binding sites on the other are occupied at equilibrium, for simple one-to-one binding.

Turning to `O=C1c2c(cc(O)c([C@@H]3O[C@H](CO)[C@@H](O)[C@H](O)[C@H]3O)c2O)O[C@@H](c2ccc(O)c(O)c2)[C@@H]1O` [ULMA, (2S,3S)-(+)-3′,4′,5,7-tetrahydroxydihydroflavonol-6-C-β-D-glucopyranoside], on AdipoR1, the “maximum binding (BMAX)” value is on record as 1410 fmol/mg of protein. Moreover, the dissociation constant (Kd) on AdipoR1 (2 hours, ice cold, read-out: dissociation constant (Kd)) was 4.9 nM. In the series with wistar rats (5 mg/kg ULMA oral alone), the “food intake in vehicle treated (ethanol: IP) rats” value is “did not affect food intake”. Moreover, the “Dex-caused loss in food intake” value with wistar rats (Dex + 5 mg/kg ULMA oral) is given as “alleviated it”. Moreover, the “level of acetylated PGC-1α” value in the series with PGC-1α is “decreased”.
